Measured values published in paper PMC6568410, “A scorpion venom peptide derivative BmKn‒22 with potent antibiofilm activity against Pseudomonas aeruginosa” (PLoS ONE, 2019).
Where no end group is shown, it is not given here.

Key:
[1] = system: P. aeruginosa PAO1; experiment: MIC, broth microdilution; assay type: cell-based, Pseudomonas aeruginosa; details: broth microdilution in LB broth, 10^6 CFU/mL, 37 °C, 24 h; printed only as half of the MIC
Procedure: MIC of azithromycin against P. aeruginosa was determined by using broth microdilution assay according to the protocol previously described with some modifications. Twofold serial dilutions of azithromycin (AZM; Sigma, St. Louis, USA) were prepared in LB broth in the wells of flat-bottomed 96-well microtiter plates (Nunc). Aliquots of P. aeruginosa PAO1 suspension at a final concentration of 10^6 CFU/mL was added to the wells of flat-bottomed 96-well microtiter plates (Nunc).

[2] = system: P. aeruginosa PAO1 biofilms; experiment: Antibiofilm activity of BmKn-22 and azithromycin alone or in combination, crystal violet; assay type: cell-based, Pseudomonas aeruginosa
Procedure: (§1) The effect of BmKn‒2 peptide and derivatives on biofilm formation of P. aeruginosa PAO1 was determined according to the method published previously with some modifications. Briefly, 100 μL of the test peptides was plated into the wells of flat-bottomed 96-well microtiter plates (Nunc™, Roskilde, Denmark) at the final concentrations of 200 ‒ 800 μM. Aliquots of the P. aeruginosa PAO1 suspension were then inoculated to the wells of 96-well microtiter plates to obtain a final concentration of 10^6 CFU/mL. Culture without the test peptides was used as the untreated control. After incubation at 37 ^OC for 24 h without agitation, planktonic cells were removed and the plates were gently rinsed twice with phosphate buffered saline (PBS) pH 7.4. Biofilms were then stained with 0.1% crystal violet solution (Merck, Darmstadt, Germany) for 10 minutes at room temperature. Excess stains were rinsed off with PBS pH 7.4 and the plates were left dry at 37 ^OC for 2 h. Subsequently, biofilm biomass was solubilized with 30% acetic acid and the optical density (OD) measured at 550 nm using a microplate reader (BioTek Synergy HT).
Briefly, P. aeruginosa PAO1 suspension (10^6 CFU/mL, final concentration) was added to the wells of flat-bottomed 96-well microtiter plates (Nunc) containing the test peptide, azithromycin (AZM; Sigma) alone or in combinations. […] Biofilm formation was employed by measuring biofilm biomass stained with crystal violet as a protocol described in previous section.

[3] = system: P. aeruginosa PAO1 biofilm formation; experiment: Biofilm formation assay, crystal violet staining; assay type: cell-based, Pseudomonas aeruginosa; details: 800 µM, 24 h, compared with untreated control; result in words
Procedure: as §1

[4] = system: P. aeruginosa PAO1; experiment: Growth assay, standard plate counts; assay type: cell-based, Pseudomonas aeruginosa; details: 800 µM, 24 h; for effect on bacterial counts (growth): compared with untreated control, result in words
Procedure: The effects of BmKn‒2 peptide and its derivatives on growth of P. aeruginosa PAO1 were carried out as described previously with some modifications. Bacterial suspension (10^6 CFU/mL) and the test peptides (800 μM, final concentration) were incubated at 37 ^OC at 150 rpm. Bacterial culture without the test peptides was used as the untreated control. After 24 h, bacterial concentration was evaluated. Cultures from each treatment were taken and 10-fold serial dilution was performed; 100 μL of each dilution was then spread on LB agar plates. Following incubation at 37°C for 24 h, the colonies were counted and expressed as log10 CFU/mL.

[5] = system: sheep red blood cells; experiment: Hemolytic assay; assay type: cell-based; details: 800 µM, 37 °C, 1 h
Procedure: Hemolytic activity of the test peptides was assayed according to a protocol described previously. Suspension of 2% sheep red blood cells (100 μL) prepared in PBS pH 7.4 was incubated with 100 μL of the test peptides (800 μM, final concentration). After incubation at 37 ^OC for 1 h, the suspension was centrifuged at 1,000 g for 5 min followed by transferring 100 μL of the supernatant to 96 well-microtiter plate (Nunc). Released hemoglobin was then determined by measuring an absorbance at 405 nm using a microplate reader (BioTek Synergy HT). Positive and negative controls in this assay were 1% Triton X-100 and PBS pH 7.4, respectively. Hemolysis (%) was calculated using an equation: (OD405 nm peptide ‒ OD405 nm PBS pH 7.4)/(OD405 nm 1% Triton X-100 ‒ OD405 nm PBS pH 7.4) × 100.

[6] = system: L929 mouse fibroblast cells; experiment: Cytotoxicity, MTT assay; assay type: cell-based; details: 800 µM, 24 h; for effect on viability of L929 cells: compared with untreated control, result in words; for Cell viability (%): L929 cells
Procedure: The toxicity of the test peptides against L929 mouse fibroblast cells was assessed by 3-(4,5-dimethylthiazol-2-yl)-2,5-diphenyltetrazolium bromide (MTT) assay. L929 mouse fibroblast cells from American Type Culture Collection (ATCC, Manassas, VA, USA) were cultured in Dulbecco's Modified Eagle Medium (DMEM; HyClone, Utah, USA) supplemented with 10% fetal bovine serum (Gibco, South America), 10 mM 4-(2-hydroxyethyl)-1 piperazineethanesulfonic acid (HEPES; HyClone, Utah, USA), 2 mM L-glutamine (Gibco, Brazil) and 100 U/mL penicillin and 100 μg/ml streptomycin (Gibco, USA) in a 5% CO2 atmosphere at 37°C. L929 cells (2×10^4 cells/well) were seeded in 96-well plates (Nunc) and incubated overnight. The culture medium was discarded and replaced by 100 μL of fresh DMEM containing the test compounds (final concentration 800 μM). Cells without the test compounds served as untreated control. After 24 h incubation, 20 μL of MTT solution (5 mg/mL; Sigma, St. Louis, MO, USA) was added and incubated for 3 h. The culture supernatant was removed and 100 μL dimethyl sulfoxide was added to each well to dissolve the formazan crystals. The absorbance was measured at 540 nm on a microplate reader (BioTek Synergy HT). Percentage of cell viability was calculated according to the equation: (OD of treated cells/ OD of untreated cells) × 100.

[7] = 37 °C, 150 rpm, plate counts, untreated control 9.183, mean of 3 independent experiments
[8] = Exp. 1 (untreated control 9.082)
[9] = Exp. 2 (untreated control 9.198)
[10] = Exp. 3 (untreated control 9.268)

CC[C@H]1OC(=O)[C@H](C)[C@@H](O[C@H]2C[C@@](C)(OC)[C@@H](O)[C@H](C)O2)[C@H](C)[C@@H](O[C@@H]2O[C@H](C)C[C@H](N(C)C)[C@H]2O)[C@](C)(O)C[C@@H](C)CN(C)[C@H](C)[C@@H](O)[C@]1(C)O [AZM, azithromycin, reference compound]
sub-MIC (1/2 of MIC) dose [1]: 64 mg/L | Biofilm biomass (% control) ([2]; azithromycin alone 64 µg/ml (1/2 MIC), 24 h, 37 °C, crystal violet, mean of 3 independent experiments): 100.000 % control | Biofilm biomass (% control) ([2]; azithromycin alone 64 µg/ml, Exp. 1): 100.000 % control | Biofilm biomass (% control) ([2]; azithromycin alone 64 µg/ml, Exp. 2): 100.000 % control | Biofilm biomass (% control) ([2]; azithromycin alone 64 µg/ml, Exp. 3): 100.000 % control | biofilm inhibition by azithromycin alone ([2]; sub-MIC dose (1/2 MIC, 64 µg/mL), result in words): significant biofilm inhibition was not evident

FIGAIAR [BmKn-26]
reduction of P. aeruginosa biofilms [3]: less biofilm reduction activities | Bacterial growth, Log10 CFU/mL [4, 7]: 9.247 Log10 CFU/mL | effect on bacterial counts (growth) [4]: no significant (P > 0.05) differences in bacterial counts | Bacterial growth, Log10 CFU/mL [4, 8]: 9.213 Log10 CFU/mL | Bacterial growth, Log10 CFU/mL [4, 9]: 9.213 Log10 CFU/mL | Bacterial growth, Log10 CFU/mL [4, 10]: 9.314 Log10 CFU/mL | lysis of red blood cells [5]: less or no hemolysis | effect on viability of L929 cells [6]: low effects on cell viability | Cell viability (%) ([6]; Exp. 1): 85.233% | Cell viability (%) ([6]; Exp. 2): 87.113% | Cell viability (%) ([6]; Exp. 3): 79.724%

FIGAIARLL [BmKn-24]
reduction of P. aeruginosa biofilms [3]: less biofilm reduction activities | Bacterial growth, Log10 CFU/mL [4, 7]: 9.313 Log10 CFU/mL | effect on bacterial counts (growth) [4]: no significant (P > 0.05) differences in bacterial counts | Bacterial growth, Log10 CFU/mL [4, 8]: 9.304 Log10 CFU/mL | Bacterial growth, Log10 CFU/mL [4, 9]: 9.273 Log10 CFU/mL | Bacterial growth, Log10 CFU/mL [4, 10]: 9.364 Log10 CFU/mL | lysis of red blood cells [5]: less or no hemolysis | effect on viability of L929 cells [6]: low effects on cell viability | Cell viability (%) ([6]; Exp. 1): 84.274% | Cell viability (%) ([6]; Exp. 2): 81.538% | Cell viability (%) ([6]; Exp. 3): 83.751%

FIGAIARLLSKI [BmKn-21]
reduction of P. aeruginosa biofilms [3]: marked reduction | Bacterial growth, Log10 CFU/mL [4, 7]: 6.183 Log10 CFU/mL | effect on bacterial counts (growth) [4]: reduction in bacterial counts | Bacterial growth, Log10 CFU/mL [4, 8]: 6.000 Log10 CFU/mL | Bacterial growth, Log10 CFU/mL [4, 9]: 6.314 Log10 CFU/mL | Bacterial growth, Log10 CFU/mL [4, 10]: 6.236 Log10 CFU/mL | effect on viability of L929 cells [6]: significant decrease (P < 0.001) in viability | Cell viability (%) ([6]; Exp. 1): 1.974% | Cell viability (%) ([6]; Exp. 2): 1.699% | Cell viability (%) ([6]; Exp. 3): 1.835%
